Measurements: article PMC10002375, “Synthesis of 3-(2-Alkylthio-4-chloro-5-methylbenzenesulfonyl)-2-(1-phenyl-3-arylprop-2-enylideneamino)guanidine Derivatives with Pro-Apoptotic Activity against Cancer Cells” (International Journal of Molecular Sciences, 2023)

Key:
MCF-7 (breast cancer) = experiment: MTT cell viability assay, MCF-7; format: cell-based, human; settings: for IC50: MTT, 72 h; for Selectivity Index MCF-7/HaCaT: MCF-7 versus HaCaT, from IC50 values
Description: (§1) The cytotoxic activity of the compounds 8–33 has been evaluated in MTT assays against three human cancer cell lines MCF-7 (breast cancer), HeLa (cervical cancer), and HCT-116 (colon cancer) and it was expressed as IC50 values in μM (Table 1).
(§2) All chemicals, if not stated otherwise, were obtained from Sigma-Aldrich (St. Louis, MO, USA). The MCF-7 cell line was purchased from Cell Lines Services (Eppelheim, Germany), the HeLa and HCT-116 cell lines were obtained from the Department of Microbiology, Tumor and Cell Biology, Karolinska Institute (Stockholm, Sweden). Cells were cultured in Dulbecco’s modified Eagle’s medium (DMEM) supplemented with 10% fetal bovine serum, 2 mM glutamine, 100 units/mL penicillin, and 100 μg/mL streptomycin. Cultures were maintained in a humidified atmosphere with 5% CO2 at 37 °C in an incubator (HeraCell, Heraeus, Langenselbold, Germany).
(§3) Cell viability was determined using the MTT (3-(4,5-dimethylthiazol-2-yl)-2,5-diphenyl-tetrazoliumbromide) assay. Stock solutions of the studied compounds were prepared in 100% DMSO. […] Cells were seeded in 96-well plates at a density of 5 × 10^3 cells/well and treated for 72 h with the examined compounds in the concentration range 1–100 μM (1, 10, 25, 50, and 100 μM). Following treatment, MTT (0.5 mg/mL) was added to the medium and cells were further incubated for 2 h at 37 °C. Cells were lysed with DMSO and the absorbance of the formazan solution was measured at 550 nm with a plate reader (1420 multilabel counter, Victor, Jügesheim, Germany). […] The experiment was performed in triplicate. Values are expressed as the mean ± SD of at least three independent experiments.

HaCaT cells = experiment: MTT assay with non-cancerous HaCaT cell line; format: cell-based; settings: 72 h
Protocol: The important feature of new cytotoxic agents is their selective activity against cancer cells with a weak impact on the physiology of healthy cells. Determination of the selectivity of compounds 14–19 and 24–29 was done by MTT assay with the non-cancerous HaCaT cell line (Table 2). […] A similar effect was observed also for compound 26. […] Due to the excellent selectivity of compound 30 towards HCT-116 cells and at the same time high cytotoxicity towards this cell line (IC50 = 8 μM); derivative 30 may be a good hit compound for the search for chemotherapeutic agents for the treatment of colon cancer.
as §3

HeLa (cervical cancer) = experiment: MTT cell viability assay, HeLa; format: cell-based, human; settings: for IC50: Homo sapiens, HeLa, MTT, 72 h; for Selectivity Index HeLa/HaCaT: HeLa versus HaCaT, from IC50 values
Protocol: as §2, §3

HCT-116 (colon cancer) = experiment: MTT cell viability assay, HCT-116; format: cell-based, human; settings: for IC50: Homo sapiens, HCT-116, MTT, 72 h; for Selectivity Index HCT-116/HaCaT: HCT-116 versus HaCaT, from IC50 values
Protocol: as §2, §3

[1] = tested on: MCF-7, HeLa and HCT-116 cells; experiment: MTT assay, mean over three tested cancer cell lines; format: cell-based, human
Protocol: as §1
Although the highest activity of the compounds with hydroxyl groups as the R^2 residue was against colon cancer cells, the inhibition of the growth of breast cancer cells was also remarkable.
as §3

SMILES	IC50 (HeLa (cervical cancer))	IC50 (MCF-7 (breast cancer); Homo sapiens, MCF7)	IC50 (HCT-116 (colon cancer))	melting point	IC50 ([1]; Homo sapiens, mean of MCF-7, HeLa, HCT-116, MTT, 72 h, read-out: mean IC50 against three tested cell lines)	IC50 (MCF-7 (breast cancer))	IC50 (HaCaT cells)	Selectivity Index HeLa/HaCaT (HeLa (cervical cancer))	Selectivity Index MCF-7/HaCaT (MCF-7 (breast cancer))	Selectivity Index HCT-116/HaCaT (HCT-116 (colon cancer))	IC50 (HaCaT cells; Homo sapiens, HaCaT)	selectivity ratio, mean IC50 against cancer cells versus IC50 for HaCaT ([1]; HaCaT versus mean of three cancer cell lines)
N.N.[Cl][Pt][Cl] [Cisplatin, reference compound]						3 ± 0.1 µM	7.7 ± 0.2 µM					
Cc1cc(S(=O)(=O)NC(N)=NN=C(C=Cc2ccccc2)c2ccccc2)c(SCc2ccccc2)cc1Cl [Compound 8]	120 ± 8 µM	130 ± 8 µM	167 ± 7 µM									
Cc1cc(S(=O)(=O)NC(N)=NN=C(C=Cc2ccccc2O)c2ccccc2)c(SCc2ccccc2)cc1Cl [Compound 9]	17 ± 1 µM	18 ± 1 µM	11 ± 0.5 µM					2.1	1.9	3.2	35 ± 1 µM	
Cc1cc(S(=O)(=O)NC(N)=NN=C(C=Cc2ccc(O)cc2)c2ccccc2)c(SCc2ccccc2)cc1Cl [Compound 10]	15 ± 1 µM	15 ± 1 µM	9 ± 0.1 µM					2.1	2.1	3.4	31 ± 1 µM	
COc1ccc(C=CC(=NN=C(N)NS(=O)(=O)c2cc(C)c(Cl)cc2SCc2ccccc2)c2ccccc2)cc1 [Compound 11]		330 ± 17 µM	300 ± 21 µM									
Cc1cc(S(=O)(=O)NC(N)=NN=C(C=Cc2ccc(Cl)cc2)c2ccccc2)c(SCc2ccccc2)cc1Cl [Compound 12]	190 ± 10 µM	210 ± 13 µM	113 ± 6 µM									
Cc1cc(S(=O)(=O)NC(N)=NN=C(C=Cc2ccc([N+](=O)[O-])cc2)c2ccccc2)c(SCc2ccccc2)cc1Cl [Compound 13]	340 ± 31 µM	370 ± 20 µM	320 ± 10 µM									
Cc1cc(S(=O)(=O)NC(N)=NN=C(C=Cc2ccccc2O)c2ccccc2)c(SCc2ccccc2C)cc1Cl [Compound 14]	18 ± 1 µM	13 ± 0.6 µM	9 ± 0.1 µM					1.7	2.4	3.4	31 ± 2 µM	
Cc1cc(S(=O)(=O)NC(N)=NN=C(C=Cc2ccc(O)cc2)c2ccccc2)c(SCc2ccccc2C)cc1Cl [Compound 15]	18 ± 0.5 µM	13 ± 0.4 µM	10 ± 0.6 µM	220 to 225 °C				1.8	2.5	3.3	33 ± 2 µM	
Cc1cccc(CSc2cc(Cl)c(C)cc2S(=O)(=O)NC(N)=NN=C(C=Cc2ccccc2O)c2ccccc2)c1 [Compound 16]	36 ± 2 µM	20 ± 0.5 µM	17 ± 0.1 µM					ns	2.0	2.4	41 ± 2 µM	
Cc1cccc(CSc2cc(Cl)c(C)cc2S(=O)(=O)NC(N)=NN=C(C=Cc2ccc(O)cc2)c2ccccc2)c1 [Compound 17]	21 ± 1 µM	17 ± 1 µM	12 ± 0.6 µM					1.7	2.1	2.9	35 ± 2 µM	
Cc1ccc(CSc2cc(Cl)c(C)cc2S(=O)(=O)NC(=N)N/N=C(/C=C/c2ccccc2)c2ccccc2)cc1 [Compound 18]	200 ± 10 µM	260 ± 15 µM	160 ± 5 µM									
Cc1ccc(CSc2cc(Cl)c(C)cc2S(=O)(=O)NC(N)=NN=C(C=Cc2ccccc2O)c2ccccc2)cc1 [Compound 19]	23 ± 1 µM	14 ± 1 µM	11 ± 0.2 µM	120 to 125 °C				1.6	1.9	3.3	36 ± 2 µM	
Cc1ccc(CSc2cc(Cl)c(C)cc2S(=O)(=O)NC(N)=NN=C(C=Cc2ccc(O)cc2)c2ccccc2)cc1 [Compound 20, 3-{4-Chloro-2-[(4-methylphenyl)methylthio]-5-methylbenzenesulfonyl}-2-[3-(4-hydroxyphenyl)-1-phenylprop-2-enylideneamino]guanidine]	15 ± 1 µM	15 ± 1 µM	8.5 ± 0.2 µM		12.8 µM			2.1	2.1	3.6	31 ± 1 µM	2.42

More lines, main results first:

IC50 (HeLa (cervical cancer))	IC50 (MCF-7 (breast cancer); Homo sapiens, MCF7)	IC50 (HCT-116 (colon cancer))	melting point	IC50 ([1]; Homo sapiens, mean of MCF-7, HeLa, HCT-116, MTT, 72 h, read-out: mean IC50 against three tested cell lines)	SMILES	IC50 (MCF-7 (breast cancer))	IC50 (HaCaT cells)	Selectivity Index HeLa/HaCaT (HeLa (cervical cancer))	Selectivity Index MCF-7/HaCaT (MCF-7 (breast cancer))	Selectivity Index HCT-116/HaCaT (HCT-116 (colon cancer))	IC50 (HaCaT cells; Homo sapiens, HaCaT)	selectivity ratio, mean IC50 against cancer cells versus IC50 for HaCaT ([1]; HaCaT versus mean of three cancer cell lines)
250 ± 12 µM	150 ± 10 µM	235 ± 5 µM			COc1ccc(C=CC(=NN=C(N)NS(=O)(=O)c2cc(C)c(Cl)cc2SCc2ccc(C)cc2)c2ccccc2)cc1 [Compound 21]							
705 ± 35 µM	193 ± 10 µM	183 ± 13 µM	172 to 177 °C		Cc1ccc(CSc2cc(Cl)c(C)cc2S(=O)(=O)NC(N)=NN=C(C=Cc2ccc(Cl)cc2)c2ccccc2)cc1 [Compound 22]							
170 ± 10 µM	280 ± 17 µM				Cc1ccc(CSc2cc(Cl)c(C)cc2S(=O)(=O)NC(N)=NN=C(C=Cc2ccc([N+](=O)[O-])cc2)c2ccccc2)cc1 [Compound 23]							
18 ± 0.5 µM	19 ± 1 µM	15 ± 0.6 µM			Cc1cc(S(=O)(=O)NC(N)=NN=C(C=Cc2ccc(O)cc2)c2ccccc2)c(SCc2ccccc2Cl)cc1Cl [Compound 25]			2.3	2.2	2.7	41 ± 2 µM	
19 ± 0.5 µM	13 ± 0.6 µM	10 ± 0.4 µM			Cc1cc(S(=O)(=O)NC(N)=NN=C(C=Cc2ccccc2O)c2ccccc2)c(SCc2cccc(Cl)c2)cc1Cl [Compound 26]			2.0	2.9	3.8	38 ± 2 µM	
20 ± 0.5 µM	16 ± 1 µM	12 ± 0.1 µM			Cc1cc(S(=O)(=O)NC(N)=NN=C(C=Cc2ccc(O)cc2)c2ccccc2)c(SCc2cccc(Cl)c2)cc1Cl [Compound 27]			1.8	2.3	3.1	37 ± 2 µM	
20 ± 1 µM	230 ± 12 µM	220 ± 11 µM			Cc1cc(S(=O)(=O)NC(N)=NN=C(C=Cc2ccccc2)c2ccccc2)c(SCc2ccc(Cl)cc2)cc1Cl [Compound 28]						99 ± 3 µM	
41 ± 2 µM	19 ± 1 µM	18 ± 0.4 µM			Cc1cc(S(=O)(=O)NC(N)=NN=C(C=Cc2ccccc2O)c2ccccc2)c(SCc2ccc(Cl)cc2)cc1Cl [Compound 29]			ns	2.4	2.5	45 ± 3 µM	
37 ± 1 µM	18 ± 1 µM	8 ± 0.2 µM			Cc1cc(S(=O)(=O)NC(N)=NN=C(C=Cc2ccc(O)cc2)c2ccccc2)c(SCc2ccc(Cl)cc2)cc1Cl [Compound 30, 3-{4-chloro-2-[(4-chlorophenyl)methylthio]-5-methylbenzenesulfonyl}-2-[3-(4-hydroxyphenyl)-1-phenylprop-2-enylideneamino]guanidine]			2.3	4.7	10.6	85 ± 2 µM	
110 ± 3 µM	220 ± 12 µM	450 ± 27 µM			Cc1cc(S(=O)(=O)NC(N)=NN=C(C=Cc2ccc([N+](=O)[O-])cc2)c2ccccc2)c(SCc2ccc(Cl)cc2)cc1Cl [Compound 33]							
